Reference: US20230051589A1, “COMPOUNDS AND COMPOSITIONS FOR TREATING CONDITIONS ASSOCIATED WITH NLRP ACTIVITY” (Novartis AG, priority 2018, published 2023)
Read-outs that look alike come from different tables or passages of the source.

Tested on: IL-1β production in PMA-differentiated THP-1 cells
Experiment: IL-1β production in PMA-differentiated THP-1 cells stimulated with gramicidin (hTHP-1 assay, 2% fetal bovine serum; Procedures 1-3)
Format: cell-based, human
Outline: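 IL-1β released into supernatants was read by HTRF after 2 h gramicidin (5 μM) challenge. Before challenge, compounds (3-fold dilutions, top 100 μM, 0.37% DMSO) were given 1 h on THP-1 cells differentiated with PMA (20 ng/ml, 16-18 h) and held in 2% FBS medium.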

[1] = Homo sapiens, THP-1, hTHP-1 assay containing 2% fetal bovine serum, Table B2, class symbols, read-out: IC50
[2] = Homo sapiens, THP-1, Table B1, hTHP-1 assay containing 2% fetal bovine serum, gramicidin stimulation, IL-1β readout, read-out: hTHP-1 IC50 (average)
[3] = Homo sapiens, THP-1, hTHP-1 assay containing 2% fetal bovine serum, Table B2, given as bound, read-out: IC50

SMILES	IC50 [1] [µM]	also measured
CC(O)(CO)c1nc(CO)c(S(N)(=O)=NC(=O)Nc2c3c(cc4c2CCC4)CCC3)s1 (stereo in doubt) [Example 755, 2-((S)-1,2-dihydroxypropan-2-yl)-N′-((1,2,3,5,6,7-hexahydro-s-indacen-4-yl)carbamoyl)-4-(hydroxymethyl)thiazole-5-sulfonimidamide]		IC50 (Table B3, hTHP-1 assay containing 2% fetal bovine serum, gramicidin stimulation, IL-1β readout, read-out: hTHP-1 IC50): 0.2 to 1 µM
C[C@](O)(CO)c1ncc(S(N)(=O)=NC(=O)Nc2c3c(cc4c2CC4)CCC3)s1 (stereo partly drawn) [919f^]	0.008 to 0.04	
NS(=O)(=NC(=O)Nc1c2c(cc3c1CCC3)CCC2)c1ccc([C@@H]2CCCN2)s1 (stereo partly drawn) [921f^]	0.2 to 1	
CC(O)(CO)c1cc(F)c(S(N)(=O)=NC(=O)Nc2c3c(c(C#N)c4c2CCC4)CCC3)s1 (stereo not drawn) [Compound 411]		IC50 [2]: 0.04 to 0.2 µM
CNCc1cc(F)c(S(N)(=O)=NC(=O)Nc2c3c(cc4c2CCC4)CCC3)s1 (stereo not drawn) [Compound 412]		IC50 [2]: 0.04 to 0.2 µM
N[S@@](=O)(=NC(=O)Nc1c2c(cc3c1CCC3)CCC2)c1ccc(C2CCN2)cc1 (stereo partly drawn) [Compound 802a]	0.2 to 1	
N[S@](=O)(=NC(=O)Nc1c2c(cc3c1CCC3)CCC2)c1ccc([C@H]2CCN2)cc1 [Compound 802b]	5 to 30	
N[S@](=O)(=NC(=O)Nc1c2c(cc3c1CCC3)CCC2)c1ccc([C@@H]2CCN2)cc1 [Compound 802c]	5 to 30	
CC(C)(O)c1ccc([S@@](N)(=O)=NC(=O)Nc2c3c(cc4c2C(=O)CC4)CCC3)cn1 [Compound 804a]		IC50 [3]: > 30 µM
CC(C)(O)c1ccc([S@](N)(=O)=NC(=O)Nc2c3c(cc4c2C(=O)CC4)CCC3)cn1 [Compound 804b]	0.2 to 1	
CC(C)(O)c1ccnc([S@](N)(=O)=NC(=O)Nc2c3c(c(C#N)c4c2CCC4)CCC3)c1 [Compound 818a]	1 to 5	
CC(C)(O)c1ccnc([S@@](N)(=O)=NC(=O)Nc2c3c(c(C#N)c4c2CCC4)CCC3)c1 [Compound 818b]	0.2 to 1	
C[C@H](N[S@@](=O)(=NC(=O)Nc1c2c(cc3c1CCC3)CCC2)c1cnc(C(C)(C)O)s1)c1ccccc1 [Compound 887a]	5 to 30	
C[C@H](N[S@](=O)(=NC(=O)Nc1c2c(cc3c1CCC3)CCC2)c1cnc(C(C)(C)O)s1)c1ccccc1 [Compound 887b]		IC50 [3]: > 30 µM
CN(C)Cc1ccc(S(N)(=O)=NC(=O)Nc2c3c(cc4c2CCC4)CCC3)s1 (stereo not drawn) [Compound 889]	1 to 5	
CN(C)Cc1ccc([S@](N)(=O)=NC(=O)Nc2c3c(cc4c2CCC4)CCC3)s1 [Compound 889a]	5 to 30	
CN(C)Cc1ccc([S@@](N)(=O)=NC(=O)Nc2c3c(cc4c2CCC4)CCC3)s1 [Compound 889b]	0.2 to 1	
CN(Cc1ccc(S(N)(=O)=NC(=O)Nc2c3c(cc4c2CC4)CCC3)c(F)c1)C1CCC1 (stereo not drawn) [Compound 891]	1 to 5	
CC(NC1CCC1)c1ccc(S(N)(=O)=NC(=O)Nc2c3c(cc4c2CC4)CCC3)c(F)c1 (stereo not drawn) [Compound 892]	0.2 to 1	
CC(C)(O)c1sc(S(N)(=O)=NC(=O)Nc2c3c(cc4c2CCC4)CCC3)nc1CO (stereo not drawn) [Compound 893]	0.04 to 0.2	
CC(C)(O)c1cccc(S(N)(=O)=NC(=O)Nc2c3c(cc4c2CCC4)CCC3)n1 (stereo not drawn) [Compound 895]	1 to 5	

SMILES	IC50 [1] [µM]	also measured
NS(=O)(=NC(=O)Nc1c2c(cc3c1CCC3)CCC2)c1sc(CNC2CCC2)cc1F (stereo not drawn) [Compound 898]	0.2 to 1	
CN1CCC(c2ccc(S(N)(=O)=NC(=O)Nc3c4c(cc5c3CCC5)CCC4)c(F)c2)C1 (stereo not drawn) [Compound 899]	5 to 30	
CC(C)(O)c1sc(S(N)(=O)=NC(=O)Nc2c3c(cc4c2CCC4)CCC3)cc1-c1ccccc1 (stereo not drawn) [Compound 900]	0.04 to 0.2	
CN(C)CC(C)(C)c1ccc(S(N)(=O)=NC(=O)Nc2c3c(cc4c2CCC4)CCC3)cc1 (stereo not drawn) [Compound 902]	1 to 5	
CN(C)CC(C)(C)c1ccc([S@](N)(=O)=NC(=O)Nc2c3c(cc4c2CCC4)CCC3)cc1 [Compound 902a]		IC50 [3]: > 30 µM
CN(C)CC(C)(C)c1ccc([S@@](N)(=O)=NC(=O)Nc2c3c(cc4c2CCC4)CCC3)cc1 [Compound 902b]	0.2 to 1	
CC(C)c1cnc(S(N)(=O)=NC(=O)Nc2c3c(cc4c2CCC4)CCC3)c(F)c1 (stereo not drawn) [Compound 903]	1 to 5	
CC(C)c1cnc([S@@](N)(=O)=NC(=O)Nc2c3c(cc4c2CCC4)CCC3)c(F)c1 [Compound 903a]	0.2 to 1	
CC(C)c1cnc([S@](N)(=O)=NC(=O)Nc2c3c(cc4c2CCC4)CCC3)c(F)c1 [Compound 903b]	5 to 30	
CCn1ccc(S(N)(=O)=NC(=O)Nc2c3c(cc4c2CCC4)CCC3)n1 (stereo not drawn) [Compound 904]	0.2 to 1	
CCn1ccc([S@](N)(=O)=NC(=O)Nc2c3c(cc4c2CCC4)CCC3)n1 [Compound 904a]	0.04 to 0.2	
CCn1ccc([S@@](N)(=O)=NC(=O)Nc2c3c(cc4c2CCC4)CCC3)n1 [Compound 904b]	1 to 5	
CC(C)n1nc(S(N)(=O)=NC(=O)Nc2c3c(cc4c2C(=O)CC4)CCC3)cc1CO (stereo not drawn) [Compound 907]	1 to 5	
CC(C)n1nc(S(N)(=O)=NC(=O)Nc2c3c(cc4c2C(=O)CC4)CCC3)cc1C(C)(C)O (stereo not drawn) [Compound 908]	0.2 to 1	
CC(C)n1nc([S@](N)(=O)=NC(=O)Nc2c3c(cc4c2C(=O)CC4)CCC3)cc1C(C)(C)O [Compound 908a]		IC50 [3]: > 30 µM
CC(C)n1nc([S@@](N)(=O)=NC(=O)Nc2c3c(cc4c2C(=O)CC4)CCC3)cc1C(C)(C)O [Compound 908b]	0.2 to 1	
CN1CCCC(c2ccc(S(N)(=O)=NC(=O)Nc3c4c(cc5c3CC5)CCC4)c(F)c2)C1 (stereo not drawn) [Compound 911]	1 to 5	
CN1CCC[C@@H](c2ccc([S@](N)(=O)=NC(=O)Nc3c4c(cc5c3CC5)CCC4)c(F)c2)C1 [Compound 911a]		IC50 [3]: > 30 µM
CN1CCC[C@H](c2ccc([S@](N)(=O)=NC(=O)Nc3c4c(cc5c3CC5)CCC4)c(F)c2)C1 [Compound 911b]	1 to 5	
CN1CCC[C@H](c2ccc([S@@](N)(=O)=NC(=O)Nc3c4c(cc5c3CC5)CCC4)c(F)c2)C1 [Compound 911c]		IC50 [3]: > 30 µM
CN1CCC[C@@H](c2ccc([S@@](N)(=O)=NC(=O)Nc3c4c(cc5c3CC5)CCC4)c(F)c2)C1 [Compound 911d]	1 to 5	

SMILES	IC50 [1] [µM]	also measured
CC(C)(CO)c1ncc(S(N)(=O)=NC(=O)Nc2c3c(c(C#N)c4c2CCC4)CCC3)s1 (stereo not drawn) [Compound 913]	0.04 to 0.2	
CC(C)(CO)c1ncc([S@@](N)(=O)=NC(=O)Nc2c3c(c(C#N)c4c2CCC4)CCC3)s1 [Compound 913a]	1 to 5	
CC(C)(CO)c1ncc([S@](N)(=O)=NC(=O)Nc2c3c(c(C#N)c4c2CCC4)CCC3)s1 [Compound 913b]	0.04 to 0.2	
CC(C)(O)c1nc(CO)c(S(N)(=O)=NC(=O)Nc2c3c(cc4c2C(=O)CC4)CCC3)s1 (stereo not drawn) [Compound 914]	1 to 5	
CC(C)(O)c1nc(CO)c([S@@](N)(=O)=NC(=O)Nc2c3c(cc4c2C(=O)CC4)CCC3)s1 [Compound 914a]	5 to 30	
CC(C)(O)c1nc(CO)c([S@](N)(=O)=NC(=O)Nc2c3c(cc4c2C(=O)CC4)CCC3)s1 [Compound 914b]	1 to 5	
CCn1ccc(S(N)(=O)=NC(=O)Nc2c3c(cc4c2CC4)CCC3)n1 (stereo not drawn) [Compound 916]	0.2 to 1	
CCn1ccc([S@](N)(=O)=NC(=O)Nc2c3c(cc4c2CC4)CCC3)n1 [Compound 916a]	0.04 to 0.2	
CCn1ccc([S@@](N)(=O)=NC(=O)Nc2c3c(cc4c2CC4)CCC3)n1 [Compound 916b]	1 to 5	
NS(=O)(=NC(=O)Nc1c2c(cc3c1CCC3)CCC2)c1ccc(-c2ccccc2)s1 (stereo not drawn) [Compound 917]	5 to 30	
C[C@@](O)(CO)c1ncc([S@](N)(=O)=NC(=O)Nc2c3c(cc4c2CC4)CCC3)s1 [Compound 919a]	0.2 to 1	
C[C@@](O)(CO)c1ncc([S@@](N)(=O)=NC(=O)Nc2c3c(cc4c2CC4)CCC3)s1 [Compound 919b]	0.008 to 0.04	
C[C@@](O)(CO)c1ncc(S(N)(=O)=NC(=O)Nc2c3c(cc4c2CC4)CCC3)s1 (stereo partly drawn) [Compound 919c]	0.008 to 0.04	
C[C@](O)(CO)c1ncc([S@](N)(=O)=NC(=O)Nc2c3c(cc4c2CC4)CCC3)s1 [Compound 919d]	0.2 to 1	
C[C@](O)(CO)c1ncc([S@@](N)(=O)=NC(=O)Nc2c3c(cc4c2CC4)CCC3)s1 [Compound 919e]	0.008 to 0.04	
C[C@@](O)(CO)c1ncc([S@](N)(=O)=NC(=O)Nc2c3c(cc4c2C(=O)CC4)CCC3)s1 [Compound 920a]		IC50 [3]: > 30 µM
C[C@@](O)(CO)c1ncc([S@@](N)(=O)=NC(=O)Nc2c3c(cc4c2C(=O)CC4)CCC3)s1 [Compound 920b]	0.2 to 1	
C[C@](O)(CO)c1ncc(S(N)(=O)=NC(=O)Nc2c3c(cc4c2C(=O)CC4)CCC3)s1 (stereo partly drawn) [Compound 920c]	0.04 to 0.2	
C[C@@](O)(CO)c1ncc(S(N)(=O)=NC(=O)Nc2c3c(cc4c2C(=O)CC4)CCC3)s1 (stereo partly drawn) [Compound 920d]	0.2 to 1	
N[S@@](=O)(=NC(=O)Nc1c2c(cc3c1CCC3)CCC2)c1ccc([C@H]2CCCN2)s1 [Compound 921a]	5 to 30	
N[S@](=O)(=NC(=O)Nc1c2c(cc3c1CCC3)CCC2)c1ccc([C@H]2CCCN2)s1 [Compound 921b]	0.2 to 1	
